What all share (assay type): biochemical
For assay [1], the target named is T1, bovine membrane-bound sialidase (Bos taurus, UniProt O97859).
T1 construct: the sialidase activity was purified by more than 100,000 times from the bovine brain particulate fraction; from tissue; host or cells: bovine brain (particulate/membrane fraction, detergent-solubilized, 10-step chromatographic purification)
T1 sequence (O97859 1-428): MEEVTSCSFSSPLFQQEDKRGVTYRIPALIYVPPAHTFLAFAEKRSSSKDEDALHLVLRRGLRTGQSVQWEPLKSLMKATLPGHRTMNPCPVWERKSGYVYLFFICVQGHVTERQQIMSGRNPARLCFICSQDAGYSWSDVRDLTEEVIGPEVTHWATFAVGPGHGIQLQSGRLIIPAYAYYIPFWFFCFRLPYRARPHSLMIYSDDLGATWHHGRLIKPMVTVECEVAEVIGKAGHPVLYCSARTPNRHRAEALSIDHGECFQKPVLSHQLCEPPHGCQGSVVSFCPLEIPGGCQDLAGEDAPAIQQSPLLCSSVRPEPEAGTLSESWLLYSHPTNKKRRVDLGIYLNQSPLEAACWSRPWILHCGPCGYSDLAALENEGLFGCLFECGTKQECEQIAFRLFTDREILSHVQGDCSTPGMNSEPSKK
In words: Sialidase activity of purified bovine membrane-bound sialidase for various substrates (substrate specificity). Conditions: for Hydrolysis activity (%): relative activity, activity for GD3-ganglioside defined as 100, purified enzyme. As to the method:
(§1) A reaction system (0.2 ml) contained 50-100 nmol of sialic acid-bound saccharide substrate, 0.2 mg of bovine serum albumin, […] of sodium acetate buffer (pH 4.6), 0.2 mg of Triton X-100, and an enzyme fraction, and a substrate consisting mainly of bovine brain mixed gangliosides (Sigma, Type II) was used.
(§2) A reaction mixture having the aforementioned composition was incubated at 37° C. for 15-60 minutes, and the reaction was stopped by quick freezing. The released sialic acid was quantitated by the thiobarbituric acid method of Warren (Warren L., J. Biol. Chem. 234, 1971-1975, 1959) at 549 nm and 532 nm. In Steps 1, 2, and 7 explained below, the quantitation was performed by the same method after the reaction product was passed through an AGX-2 ion exchange mini column. The amount of the sialic acid (nmol) released per hour was defined as 1 unit. When a synthetic substrate, 4-methylumbelliferyl N-acetylneuraminic acid (4MU-NeuAc) was used as the sialic acid-bound saccharide substrate, Triton X-100 was excluded from the reaction system, and released 4-methylumbelliferone was quantitated by a fluorospectrophotometer.
The results of investigations about the activity of the enzyme of the present invention for various substrates are shown in Table 2. The numerical values represent relative activity when the activity for the GD3-ganglioside is defined to be 100.

Assay [2] concerns the target T1, bovine membrane-bound sialidase. The assay can be described thus: Inhibition, activation and stabilization of purified bovine membrane-bound sialidase. The note with it: for Inhibition of the sialidase: in words; for Inhibition (%): 100 minus residual activity (%). As to the method:
as §1, §2
The numerical values each represent 100 minus (residual activity (%) in the presence of inhibitor).

Assay [3] has the same target. The assay is described as above. The note with it: in words.

Like-named read-outs stand apart in the source and are kept apart here.

For the molecule GM2-ganglioside, in assay [1], the “Substrate specificity: whether the sialidase acts on the substrate” value (“Substrate specificity” for short) is listed as “does not substantially act on” and the “Hydrolysis activity (%)” value was found to be 3%.
In the case of `CC(=O)N[C@H]1[C@H]([C@H](O)[C@H](O)CO)OC(C(=O)O)=C[C@@H]1O` [2-deoxy-2,3-dehydro-N-acetylneuraminic acid], the “Inhibition of the sialidase” value in assay [2] is given as “weakly inhibited”. In addition, the “Inhibition (%)” value in assay [2] (inhibitor 0.2 mM) is reported as 45%. In addition, the “Stabilization of the sialidase” value in assay [3] is reported as “stabilized”.
In the case of Orosomucoid: glycoprotein substrate, in assay [1], the “Substrate specificity” value is recorded as “does not substantially act on” and the “Hydrolysis activity (%)” value is reported as 2%.
Turning to `O[C@H](CS)[C@H](O)CS` (racemic) [dithiothreitol], the “Stabilization of the sialidase” value in assay [3] is listed as “stabilized”.
Take Triton X-100: in assay [2] (0.1 to 0.2% of Triton X-100), the “Sialidase activity in the presence of surface active agent” value was “highly active”.
On to Fetuin: glycoprotein substrate, for which, in assay [1], the “Substrate specificity” value was “does not substantially act on” and the “Hydrolysis activity (%)” value is on record as 2%.
Regarding `O=C(O)c1cc[c]([Hg][OH])cc1` [4-Hydroxy mercury benzoate], the “Inhibition of the sialidase” value in assay [2] is listed as “strongly inhibited”. Besides, the “Inhibition (%)” value in assay [2] (inhibitor 50 μM) came to 92%.
`[Cu+2]` [Cu^2+]: the “Inhibition of the sialidase” value in assay [2] is “strongly inhibited”.
Regarding GM1-ganglioside, in assay [1], the “Substrate specificity” value is given as “does not substantially act on” and the “Hydrolysis activity (%)” value was found to be 1%.
Consider `OCC(O)CO` [glycerol], for which, in assay [3], the “Stabilization of the sialidase” value was “stabilized”.
As for `CC(=O)N[C@H]1[C@H]([C@H](O)[C@H](O)CO)O[C@@](O[C@H]2[C@@H](O)[C@@H](CO)O[C@@H](O[C@H]3[C@H](O)[C@@H](O)C(O)O[C@@H]3CO)[C@@H]2O)(C(=O)O)C[C@@H]1O` (stereo partly drawn) [α2-3 syalyllactose, α2-3 sialyllactose], in assay [1], the “Substrate specificity” value is “did not act on” and the “Hydrolysis activity (%)” value is on record as 11%. In addition, in assay [1] (listed as α2-3 sialyllactose), the “Substrate specificity” value is given as “weakly acts on”.
Regarding GD1a-ganglioside, in assay [1], the “Substrate specificity” value was “acts on” and the “Hydrolysis activity (%)” value is reported as 56%.
For `CC(=O)N[C@H]1[C@H]([C@H](O)[C@H](O)CO)OC(Oc2ccc3c(C)cc(=O)oc3c2)(C(=O)O)C[C@@H]1O` (some centres unmarked) [4-MUNeuAc, 4-methylumbelliferyl N-acetylneuraminic acid], in that order: “weakly acts on” and 25%.
On to `[Cl][Cu][Cl]` [CuCl2], for which the “Inhibition (%)” value in assay [2] (inhibitor 1 mM) was determined as 95%.
Consider GM3-ganglioside, for which, in assay [1], the “Substrate specificity” value was “acts on” and the “Hydrolysis activity (%)” value came to 62%.
Regarding GD3-ganglioside, in assay [1], the “Substrate specificity” value is on record as “acts on” and the “Hydrolysis activity (%)” value is listed as 100%.

(Values after patent publication US6534632B2, “Sialidase localized in plasma membrane DNA coding for the same” (priority 1997, dated 2003).)
